Patent publication US8097607B2, “Low dose rifalazil compositions” (priority 2002, dated 2012)

Legend:
[1] = Clinical trial: pharmacokinetics of rifalazil in plasma after single oral doses; details: for AUC / CL/F / Cmax / half-life: male, human, in vivo, po; for half-life / K10 / K12 / K21 / V1/F / Vdβ/F: males
mycobacterium species = details: 1 to 100 mg once or twice weekly; cited from earlier work
[2] = cited from earlier work

CO[C@H]1/C=C/O[C@@]2(C)Oc3c(C)c(O)c4c(=O)c(c5oc6cc(N7CCN(CC(C)C)CC7)cc(O)c6nc-5c4c3C2=O)NC(=O)/C(C)=C\C=C\[C@H](C)[C@H](O)[C@@H](C)[C@@H](O)[C@@H](C)[C@H](OC(C)=O)[C@@H]1C [rifalazil, Rifalazil]
AUC ([1]; 2.5 mg): 185 ng·h/mL
CL/F ([1]; 2.5 mg): 3 mL/min/kg
Cmax ([1]; 2.5 mg): 7.9 ng/mL
half-life ([1]; 2.5 mg, Absorption t½, single 2.5 mg oral dose): 0.67 h
half-life ([1]; 2.5 mg, Distribution t½, single 2.5 mg oral dose): 7.3 h
half-life ([1]; 2.5 mg, Elimination t½, single 2.5 mg oral dose): 139 h
AUC ([1]; 50 mg): 1350 ng·h/mL
CL/F ([1]; 50 mg): 8.17 mL/min/kg
Cmax ([1]; 50 mg): 57.3 ng/mL
half-life ([1]; 50 mg, Absorption t½, single 50 mg oral dose): 0.5 h
half-life ([1]; 50 mg, Distribution t½, single 50 mg oral dose): 11.6 h
half-life ([1]; 50 mg, Elimination t½, single 50 mg oral dose): 116 h
K10 ([1]; single 2.5 mg oral dose): 0.045 h⁻¹
K12 ([1]; single 2.5 mg oral dose): 0.044 h⁻¹
K21 ([1]; single 2.5 mg oral dose): 0.011 h⁻¹
V1/F ([1]; single 2.5 mg oral dose): 4.08 L/kg
Vdβ/F ([1]; single 2.5 mg oral dose): 36.0 L/kg
K10 ([1]; single 50 mg oral dose): 0.039 h⁻¹
K12 ([1]; single 50 mg oral dose): 0.018 h⁻¹
K21 ([1]; single 50 mg oral dose): 0.009 h⁻¹
V1/F ([1]; single 50 mg oral dose): 12.7 L/kg
Vdβ/F ([1]; single 50 mg oral dose): 82.4 L/kg
efficacy against mycobacterium species (mycobacterium species): efficacious
incidence of adverse reactions (headaches, fevers, flu-like symptoms) ([2]; 1 to 100 mg once or twice weekly): reduced, but did not eliminate
adverse reactions ([2]; clinical trials, daily administration, 10 mg per day to 10 g per day): many adverse reactions occurred
